Results reported in publication PMC3111189, “Bioactive Indole Derivatives from the South Pacific Marine Sponges Rhopaloeides odorabile and Hyrtios sp” (Marine Drugs, 2011).
Values joined by “and” are separate entries in the source; they are usually repeats but may differ in a detail not shown here. Equal values may be shown once. Read-outs that look alike come from different tables or passages of the source.

What was measured:
bee venom PLA2 = bee venom PLA2 (Apis mellifera, UniProt P00630); experiment: biochemical
KB cells = experiment: Cytotoxicity assay (MTS) on KB cells
Procedure: The human KB cell line was obtained from ECACC (Salisbury, UK) and grown in D-MEM medium supplemented with 10% fetal calf serum (Invitrogen), in the presence of penicillin, streptomycin and fungizone in a 75 cm^2 flask under 5% CO2. Cells were plated in 96-well tissue culture microplates at a density of 650 cells/well in 200 μL medium and treated 24 hrs later with compounds dissolved in DMSO using a Biomek 3000 automate (Beckman-Coulter). Controls received the same volume of DMSO (1% final volume).

[1] = Quantitative ORAC assay (fluorescein/AAPH); conditions: for fold less active than Trolox: ORAC assay, compared with Trolox; for ORAC FL relative ORAC value: fluorescein (FL) + AAPH, n = 3, Trolox = 1; for concentration displaying FL decay curve similar to Trolox: fluorescein fluorescence decay induced by AAPH, Figure 3

bee venom PLA2, sequence (P00630 34-167 limits assumed): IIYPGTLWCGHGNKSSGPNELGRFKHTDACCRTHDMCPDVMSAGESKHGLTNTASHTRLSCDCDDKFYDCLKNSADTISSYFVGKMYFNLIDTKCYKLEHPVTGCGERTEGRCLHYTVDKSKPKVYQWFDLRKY

| Compound | IC50 (bee venom PLA2; n = 2, read-out: PLA2 IC50) | ORAC FL relative ORAC value [1] | other results |
| --- | --- | --- | --- |
| NC(=O)C(=O)c1c[nH]c2ccccc12 [Compound 1, (1H-Indol-3-yl)oxoacetamide] |  |  | IC50 (bee venom PLA2): 1170 ± 50 µM |
| COC(=O)C(=O)c1c[nH]c2ccccc12 [Compound 2, (1H-Indol-3-yl)oxoacetic acid methyl ester] | 1110 ± 330 µM |  |  |
| O=Cc1c[nH]c2cc(Br)ccc12 [Compound 3, 6-Bromoindole-3-carbaldehyde] | 1270 ± 60 µM |  |  |
| C[C@H]1CC[C@H]2C(C)(C)CCC[C@]23Oc2ccc(O)cc2C[C@]13C [Compound 4, Aureol] | 460 ± 20 µM | 0.29 relative Trolox equivalent and 0.29 ± 0.03 relative Trolox equivalent | IC50 (KB cells; Homo sapiens, KB, 72 h, read-out: KB cells IC50 (50% inhibition of cell proliferation)): 5 µM; fold less active than Trolox [1]: 3 fold; concentration displaying FL decay curve similar to Trolox [1]: 15.5 µM |
| NCCc1c[nH]c2cc(Br)c(Br)cc12 [Compound 5, 5,6-Dibromotryptamine] | 620 ± 10 µM |  |  |
| CNCCc1c[nH]c2cc(Br)c(Br)cc12 [Compound 6, N-Methyl-5,6-dibromotryptamine] | 330 ± 30 µM |  |  |
| CN(C)CCc1c[nH]c2cc(Br)c(Br)cc12 [Compound 7, N,N-Dimethyl-5,6-dibromotryptamine] | 770 ± 50 µM | 0.06 ± 0.01 relative Trolox equivalent |  |
| CN[C@@H](Cc1c[nH]c2cc(Br)c(Br)cc12)C(=O)O [Compound 8, 5,6-Dibromoabrine] | 300 ± 10 µM | 0.07 ± 0.01 relative Trolox equivalent |  |
| C[N+](C)(C)[C@@H](Cc1c[nH]c2cc(Br)c(Br)cc12)C(=O)[O-] [Compound 9, 5,6-Dibromo-L-hypaphorine] | 200 ± 10 µM | 0.22 relative Trolox equivalent and 0.22 ± 0.04 relative Trolox equivalent | cytotoxicity towards KB cells (KB cells; at 10^−4 M, human KB cell line): did not show any cytotoxic activity; fold less active than Trolox [1]: 4 fold; concentration displaying FL decay curve similar to Trolox [1]: 24.2 µM |
| Cc1c(C)c2c(c(C)c1O)CCC(C)(C(=O)O)O2 (centres unmarked) [Trolox, reference compound] |  | 1 relative Trolox equivalent |  |
